# Measurements published in patent US9828345B2, “Phenylpyrazole derivatives as potent ROCK1 and ROCK2 inhibitors” (BRISTOL-MYERS SQUIBB COMPANY, priority 2013, dated 2017).
# Like-named read-outs stand apart in the source and are kept apart here.
# Key:
# [1] = target: ROCK2 (Homo sapiens, UniProt O75116); experiment: ROCK assay (Caliper LABCHIP peptide phosphorylation), ROCK2; format: biochemical; settings: 5 μM ATP, 1.5 μM peptide substrate
# [2] = target: ROCK1 (Homo sapiens, UniProt Q13464); experiment: ROCK assay (Caliper LABCHIP peptide phosphorylation), ROCK1; format: biochemical; settings: 5 μM ATP, 1.5 μM peptide substrate
# [3] = tested on: spontaneously hypertensive rat, renal hypertensive rat and deoxycortisone acetate salt hypertensive rat models; settings: cited from earlier work
# [4] = tested on: congestive heart failure in Dahl salt-sensitive rats; settings: rat, in vivo; cited from earlier work
# [5] = tested on: neointimal formation; settings: rats; cited from earlier work
# [6] = tested on: IL-1 beta-induced coronary stenosis; settings: long term treatment; cited from earlier work
# [7] = tested on: rat stroke model; settings: in vivo; cited from earlier work
# Sequence of ROCK1 (Q13464 whole entry, species assumed): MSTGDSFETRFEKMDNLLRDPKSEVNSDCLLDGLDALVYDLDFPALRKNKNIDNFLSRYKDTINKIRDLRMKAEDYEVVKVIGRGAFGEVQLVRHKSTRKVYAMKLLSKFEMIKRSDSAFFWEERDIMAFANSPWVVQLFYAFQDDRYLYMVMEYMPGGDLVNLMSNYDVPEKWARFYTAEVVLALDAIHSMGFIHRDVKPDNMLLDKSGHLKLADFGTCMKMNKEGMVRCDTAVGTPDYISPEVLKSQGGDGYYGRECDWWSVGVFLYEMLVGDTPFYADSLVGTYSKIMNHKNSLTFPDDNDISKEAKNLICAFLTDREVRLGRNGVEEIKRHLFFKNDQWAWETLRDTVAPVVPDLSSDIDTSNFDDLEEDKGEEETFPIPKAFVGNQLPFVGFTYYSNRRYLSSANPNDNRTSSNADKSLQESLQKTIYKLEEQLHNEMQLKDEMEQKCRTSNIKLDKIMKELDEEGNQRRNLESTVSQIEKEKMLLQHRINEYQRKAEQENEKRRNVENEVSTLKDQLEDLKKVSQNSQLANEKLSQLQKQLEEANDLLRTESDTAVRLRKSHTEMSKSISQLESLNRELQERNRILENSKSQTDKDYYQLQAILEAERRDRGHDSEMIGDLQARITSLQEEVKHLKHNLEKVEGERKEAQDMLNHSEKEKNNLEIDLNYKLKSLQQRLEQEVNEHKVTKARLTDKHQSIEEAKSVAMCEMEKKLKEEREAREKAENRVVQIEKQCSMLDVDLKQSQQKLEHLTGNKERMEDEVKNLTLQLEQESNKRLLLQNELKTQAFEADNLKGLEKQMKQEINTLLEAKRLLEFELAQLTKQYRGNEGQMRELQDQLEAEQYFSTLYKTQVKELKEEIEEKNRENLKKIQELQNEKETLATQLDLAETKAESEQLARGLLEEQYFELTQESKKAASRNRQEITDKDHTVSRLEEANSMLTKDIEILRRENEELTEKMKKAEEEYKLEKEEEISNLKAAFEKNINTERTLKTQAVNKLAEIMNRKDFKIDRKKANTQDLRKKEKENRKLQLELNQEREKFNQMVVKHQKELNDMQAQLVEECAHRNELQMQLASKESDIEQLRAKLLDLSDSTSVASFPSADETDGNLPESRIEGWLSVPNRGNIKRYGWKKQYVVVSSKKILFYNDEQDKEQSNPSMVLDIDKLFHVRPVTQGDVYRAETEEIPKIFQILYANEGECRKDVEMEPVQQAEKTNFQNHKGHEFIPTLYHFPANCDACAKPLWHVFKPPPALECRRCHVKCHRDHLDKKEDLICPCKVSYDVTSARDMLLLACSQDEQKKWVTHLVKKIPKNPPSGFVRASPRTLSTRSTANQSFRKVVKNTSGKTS
# Sequence of ROCK2 (O75116 whole entry, species assumed): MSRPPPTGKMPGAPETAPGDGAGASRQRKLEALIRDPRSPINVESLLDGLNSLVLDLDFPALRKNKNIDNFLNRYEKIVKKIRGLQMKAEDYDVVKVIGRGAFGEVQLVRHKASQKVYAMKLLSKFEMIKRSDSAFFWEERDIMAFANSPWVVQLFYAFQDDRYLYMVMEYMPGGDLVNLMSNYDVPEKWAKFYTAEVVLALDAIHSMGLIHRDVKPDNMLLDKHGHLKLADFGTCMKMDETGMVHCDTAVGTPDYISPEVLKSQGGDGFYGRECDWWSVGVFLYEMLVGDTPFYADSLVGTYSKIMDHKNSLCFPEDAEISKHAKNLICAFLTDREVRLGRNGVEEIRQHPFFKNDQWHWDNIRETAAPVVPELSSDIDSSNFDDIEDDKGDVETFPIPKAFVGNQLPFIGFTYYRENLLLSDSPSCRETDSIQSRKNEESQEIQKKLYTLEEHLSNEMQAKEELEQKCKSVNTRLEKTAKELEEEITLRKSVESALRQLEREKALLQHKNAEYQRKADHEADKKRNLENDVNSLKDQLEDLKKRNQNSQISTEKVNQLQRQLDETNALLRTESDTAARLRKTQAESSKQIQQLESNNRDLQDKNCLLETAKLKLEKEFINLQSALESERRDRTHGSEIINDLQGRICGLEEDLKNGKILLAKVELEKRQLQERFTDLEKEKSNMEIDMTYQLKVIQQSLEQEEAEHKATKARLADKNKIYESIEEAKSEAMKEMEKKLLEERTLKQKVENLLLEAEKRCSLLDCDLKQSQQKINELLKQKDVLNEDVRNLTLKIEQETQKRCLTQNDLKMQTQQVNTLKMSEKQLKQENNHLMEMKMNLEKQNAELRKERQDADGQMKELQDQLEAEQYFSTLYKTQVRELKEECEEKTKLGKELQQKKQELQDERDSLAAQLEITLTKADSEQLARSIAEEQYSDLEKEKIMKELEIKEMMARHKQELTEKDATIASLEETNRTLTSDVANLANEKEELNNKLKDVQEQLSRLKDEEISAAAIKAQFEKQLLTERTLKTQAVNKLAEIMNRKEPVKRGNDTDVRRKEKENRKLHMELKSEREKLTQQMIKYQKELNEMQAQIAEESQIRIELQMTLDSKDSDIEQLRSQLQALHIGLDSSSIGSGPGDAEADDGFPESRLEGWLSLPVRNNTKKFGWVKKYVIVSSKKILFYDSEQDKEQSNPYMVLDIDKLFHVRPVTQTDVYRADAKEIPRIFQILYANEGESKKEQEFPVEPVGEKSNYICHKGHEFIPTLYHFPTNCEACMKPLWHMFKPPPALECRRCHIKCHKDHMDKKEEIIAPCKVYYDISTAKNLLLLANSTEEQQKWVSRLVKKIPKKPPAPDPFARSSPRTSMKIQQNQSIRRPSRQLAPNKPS
SMILES,IC50 [1] [nM],IC50 [2] [nM],other results
"COc1cc(NC(=O)[C@H](N)Cc2ccc3ccccc3c2)ccc1-c1cn[nH]c1 [Example 6, (R)-2-amino-N-(3-methoxy-4-(1H-pyrazol-4-yl)phenyl)-3-(naphthalen-2-yl)propanamide]",3.25,8.78,–
"COc1cc(NC(=O)[C@@H](N)Cc2csc3ccccc23)ccc1-c1cn[nH]c1 [Example 9, (S)-2-amino-3-(benzo[b]thiophen-3-yl)-N-(3-methoxy-4-(1H-pyrazol-4-yl)phenyl) propanamide]",17.9,31.6,–
"COc1cc(NC(=O)[C@H](N)Cc2cccc(C(F)(F)F)c2)ccc1-c1cn[nH]c1 [Example 11, (R)-2-amino-N-(3-methoxy-4-(1H-pyrazol-4-yl)phenyl)-3-(3-(trifluoromethyl)phenyl)propanamide]",14.3,50,–
"COc1cc(NC(=O)[C@H](N)Cc2ccccc2C(F)(F)F)ccc1-c1cn[nH]c1 [Example 12, (R)-2-amino-N-(3-methoxy-4-(1H-pyrazol-4-yl)phenyl)-3-(2-(trifluoromethyl)phenyl)propanamide]",23.6,19.9,–
"COc1cc(NC(=O)[C@H](N)Cc2ccc(-c3ccccc3)cc2)ccc1-c1cn[nH]c1 [Example 13, (R)-3-([1,1′-biphenyl]-4-yl)-2-amino-N-(3-methoxy-4-(1H-pyrazol-4-yl)phenyl)propanamide]",10.3,68.4,–
"COc1cc(NC(=O)[C@H](N)Cc2cc(F)cc(F)c2)ccc1-c1cn[nH]c1 [Example 14, (R)-2-amino-3-(3,5-difluorophenyl)-N-(3-methoxy-4-(1H-pyrazol-4-yl)phenyl) propanamide]",13.4,12.6,–
"COc1cc(NC(=O)[C@H](N)Cc2ccccc2Cl)ccc1-c1cn[nH]c1 [Example 19, (R)-2-amino-3-(2-chlorophenyl)-N-(3-methoxy-4-(1H-pyrazol-4-yl)phenyl) propanamide]",37.5,13.9,–
"O=C(Cc1ccccc1Cl)Nc1ccc(-c2cn[nH]c2)cc1OCCN1CCCC1 [Example 23, N-(4-(1H-Pyrazol-4-yl)-2-(2-(pyrrolidin-1-yl)ethoxy)phenyl)-2-(2-chlorophenyl)acetamide]",8.51,111,–
"CN(C)CCOc1cc(-c2cn[nH]c2)c(F)cc1NC(=O)[C@H](N)CCc1ccccc1 [Example 27, (R)-2-Amino-N-(2-(2-(dimethylamino)ethoxy)-5-fluoro-4-(1H-pyrazol-4-yl)phenyl)-4-phenylbutanamide]",342,874,–
"N[C@H](CCc1ccccc1)C(=O)Nc1ccc(-c2cn[nH]c2)cc1 [Example 28, (R)—N-(4-(1H-Pyrazol-4-yl)phenyl)-2-amino-4-phenylbutanamide]",17.8,42.5,–
"O=C(Cc1ccccc1Cl)Nc1ccc(-c2cn[nH]c2)cc1 [Example 29, N-(4-(1H-Pyrazol-4-yl)phenyl)-2-(2-chlorophenyl)acetamide]",4.06,19.6,–
"COc1cc(NC(=O)[C@H](N)CCc2ccccc2)ccc1-c1c[nH]nc1C [Example 30, (R)-2-Amino-N-(3-methoxy-4-(3-methyl-1H-pyrazol-4-yl)phenyl)-4-phenylbutanamide]",167,232,–
"C[C@@H](N)[C@H]1CC[C@H](C(=O)Nc2ccncc2)CC1 [Example Y-27632, Y-27632]",–,–,"blood pressure ([3]; control rats): only a minor effect on blood pressure; blood pressure ([3]; three rat models of hypertension): significantly decrease blood pressure; ventricular hypertrophy, fibrosis and function [4]: improve ventricular hypertrophy, fibrosis and function; neointimal formation [5]: inhibited neointimal formation"
O=S(=O)(c1cccc2cnccc12)N1CCCNCC1 [fasudil],–,–,coronary constrictive remodeling [6]: promote a regression of coronary constrictive remodeling; coronary stenosis [6]: progressively reduce coronary stenosis; infarct size and neurologic deficit [7]: reduce both the infarct size and neurologic deficit
